The structures appear in SMILES notation.

In general, residual activity refers to the signal under treatment as a percentage of the control signal.

Assay in all cases: radiometric filter-binding kinase assay, Kinase HotSpot
Conditions in all cases: compound 0.5 µM; ATP 10 µM

Experiment [1] relates to FLT4 (human), P35916 [Q890H].
Experiment [2] has as its system MAP2K6 (human), P52564 [S207E/T211E].
Experiment [3] has as its system MKNK1 (human), Q9BUB5 [T385D; 165-205 del].
Experiment [4] has as its system PRKCQ (human), Q04759 [P330L].

FLT4 (human), P35916 [Q890H], sequence (P35916 whole entry, looked up, stated change not applied): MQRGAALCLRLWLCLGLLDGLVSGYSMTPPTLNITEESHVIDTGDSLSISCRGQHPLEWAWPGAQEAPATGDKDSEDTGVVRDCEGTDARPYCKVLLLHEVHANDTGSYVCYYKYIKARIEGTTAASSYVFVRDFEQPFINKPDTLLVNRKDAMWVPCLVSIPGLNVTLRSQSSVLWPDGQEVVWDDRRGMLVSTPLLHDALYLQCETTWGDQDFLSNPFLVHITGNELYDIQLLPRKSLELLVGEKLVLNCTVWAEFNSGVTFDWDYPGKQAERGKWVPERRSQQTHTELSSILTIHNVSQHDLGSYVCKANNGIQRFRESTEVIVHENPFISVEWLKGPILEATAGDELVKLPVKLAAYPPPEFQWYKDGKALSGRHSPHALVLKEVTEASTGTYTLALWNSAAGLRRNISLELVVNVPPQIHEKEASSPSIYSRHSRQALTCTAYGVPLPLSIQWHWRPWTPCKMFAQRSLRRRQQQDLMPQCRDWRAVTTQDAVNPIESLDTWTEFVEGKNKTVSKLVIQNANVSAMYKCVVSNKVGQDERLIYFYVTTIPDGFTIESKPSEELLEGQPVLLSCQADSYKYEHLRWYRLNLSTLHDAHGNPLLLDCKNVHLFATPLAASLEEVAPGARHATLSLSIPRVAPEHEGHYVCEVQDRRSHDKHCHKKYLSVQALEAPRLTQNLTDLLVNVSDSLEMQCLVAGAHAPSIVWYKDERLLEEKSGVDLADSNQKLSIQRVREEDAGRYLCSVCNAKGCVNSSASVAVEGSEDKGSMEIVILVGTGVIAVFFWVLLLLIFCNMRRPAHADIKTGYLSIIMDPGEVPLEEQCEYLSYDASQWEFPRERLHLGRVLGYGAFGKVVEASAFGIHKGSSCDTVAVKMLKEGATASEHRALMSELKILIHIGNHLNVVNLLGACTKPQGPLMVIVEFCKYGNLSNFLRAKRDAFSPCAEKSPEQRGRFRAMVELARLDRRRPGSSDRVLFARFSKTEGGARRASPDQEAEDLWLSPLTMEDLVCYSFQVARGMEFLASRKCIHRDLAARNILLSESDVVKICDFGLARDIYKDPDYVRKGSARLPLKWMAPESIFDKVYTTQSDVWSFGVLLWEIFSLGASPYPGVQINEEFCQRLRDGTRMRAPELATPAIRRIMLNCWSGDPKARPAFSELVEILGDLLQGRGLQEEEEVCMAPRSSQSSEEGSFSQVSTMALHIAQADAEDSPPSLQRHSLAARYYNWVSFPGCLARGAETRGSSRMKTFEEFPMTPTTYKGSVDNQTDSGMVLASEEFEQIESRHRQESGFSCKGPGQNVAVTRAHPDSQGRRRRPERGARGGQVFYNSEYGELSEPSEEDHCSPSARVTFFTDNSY
PRKCQ (human), Q04759 [P330L], sequence (Q04759 whole entry P330L, looked up): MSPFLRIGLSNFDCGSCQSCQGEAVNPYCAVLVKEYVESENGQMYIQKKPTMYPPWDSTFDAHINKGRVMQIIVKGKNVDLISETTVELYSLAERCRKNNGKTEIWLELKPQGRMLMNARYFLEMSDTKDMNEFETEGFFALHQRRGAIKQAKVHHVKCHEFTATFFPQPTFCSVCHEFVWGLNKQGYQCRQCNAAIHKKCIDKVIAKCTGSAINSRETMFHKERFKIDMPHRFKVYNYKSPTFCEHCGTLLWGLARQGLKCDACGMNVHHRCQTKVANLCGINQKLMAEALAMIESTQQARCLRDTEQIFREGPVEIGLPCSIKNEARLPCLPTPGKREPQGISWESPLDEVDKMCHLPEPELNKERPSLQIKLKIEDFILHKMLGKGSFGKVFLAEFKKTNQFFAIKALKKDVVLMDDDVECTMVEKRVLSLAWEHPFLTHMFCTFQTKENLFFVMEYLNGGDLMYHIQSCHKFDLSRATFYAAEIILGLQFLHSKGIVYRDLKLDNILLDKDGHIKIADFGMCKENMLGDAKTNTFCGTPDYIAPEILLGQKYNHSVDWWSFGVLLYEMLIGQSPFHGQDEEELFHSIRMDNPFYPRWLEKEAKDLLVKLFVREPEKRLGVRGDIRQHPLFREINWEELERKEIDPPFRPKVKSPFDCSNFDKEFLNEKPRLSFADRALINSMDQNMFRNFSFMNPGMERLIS
MKNK1 (human), Q9BUB5 [T385D; 165-205 del], sequence (Q9BUB5 whole entry, looked up, stated change not applied): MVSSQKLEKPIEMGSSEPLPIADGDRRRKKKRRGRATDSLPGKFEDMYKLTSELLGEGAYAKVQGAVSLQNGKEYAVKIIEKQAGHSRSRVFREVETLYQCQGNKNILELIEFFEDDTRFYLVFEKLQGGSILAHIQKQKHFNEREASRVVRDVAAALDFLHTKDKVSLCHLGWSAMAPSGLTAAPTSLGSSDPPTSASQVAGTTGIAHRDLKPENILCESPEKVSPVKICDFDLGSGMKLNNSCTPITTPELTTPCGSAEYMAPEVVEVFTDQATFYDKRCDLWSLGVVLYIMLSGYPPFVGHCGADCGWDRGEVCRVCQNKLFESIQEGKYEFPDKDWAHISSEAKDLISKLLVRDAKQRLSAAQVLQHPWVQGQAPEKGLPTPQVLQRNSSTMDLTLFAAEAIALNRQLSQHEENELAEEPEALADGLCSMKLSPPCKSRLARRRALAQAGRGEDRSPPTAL
MAP2K6 (human), P52564 [S207E/T211E], sequence (P52564 whole entry S207E/T211E, looked up): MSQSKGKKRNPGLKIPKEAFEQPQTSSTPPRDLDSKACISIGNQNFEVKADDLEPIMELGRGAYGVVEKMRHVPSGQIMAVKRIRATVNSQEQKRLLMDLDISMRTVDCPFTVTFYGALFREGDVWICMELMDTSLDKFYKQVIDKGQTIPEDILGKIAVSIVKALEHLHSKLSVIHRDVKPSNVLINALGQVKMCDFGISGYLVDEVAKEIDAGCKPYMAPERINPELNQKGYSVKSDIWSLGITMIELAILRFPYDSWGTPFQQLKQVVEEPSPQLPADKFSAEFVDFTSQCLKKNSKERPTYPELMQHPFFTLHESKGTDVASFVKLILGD

As to `COc1cc2ncnc(Nc3cccc(Cl)c3)c2cc1OC`, the residual activity in experiment [1] worked out at 99.3%; in experiment [2] it was 88.7%; in experiment [3], 80.8%; in experiment [4], 105%.

Turning to `CCCCc1c(-c2ccc(O)cc2)[nH]c2nccnc12`, the residual activity came out at 77.4% in experiment [1], 100% in experiment [2], 94.5% in experiment [3] and 118% in experiment [4].

In the case of `c1ccc(-c2n[nH]c3c2oc2ccccc23)cc1`, the residual activity in experiment [1] came to 108%; in experiment [2], 92.9%; in experiment [3], 96.2%; in experiment [4], 83.8%.

With `Nc1nnc2[nH]c3ccccc3nc1-2`, the residual activity was 117% in experiment [1], 100% in experiment [2], 97.4% in experiment [3] and 89.7% in experiment [4].

For the compound `CC[C@@H](CO)Nc1nc(NCc2ccccc2)c2ncn(C(C)C)c2n1`, the residual activity in experiment [1] came out at 94%; in experiment [2], 98.2%; in experiment [3] it was 96.4%; in experiment [4], 90%.

With `Nc1cccc(-c2cc3c(Oc4cccc(O)c4)ncnc3[nH]2)c1`, the residual activity stood at 15.8% in experiment [1], 90.1% in experiment [2], 87.6% in experiment [3] and 64.5% in experiment [4].

Take `Nc1ncnc2[nH]nc(Nc3ccc(F)cc3)c12`: the residual activity in experiment [1] came to 92.9%; in experiment [2] it was 87.6%; in experiment [3], 75.2%; in experiment [4], 103%.

With `Nc1n[nH]c2nnc(-c3c(-c4ccccc4)nn4ccccc34)cc12`, the residual activity in experiment [1] was 89.9%; in experiment [2] it was 90.9%; in experiment [3], 98.5%; in experiment [4], 79.9%.

Regarding `COc1cc2nccc(Oc3ccc(NC(=S)NC(=O)c4ccccc4C)cc3)c2cc1OC`, the residual activity in experiment [1] turned out to be 73.8%; in experiment [2] it was 94.9%; in experiment [3] it was 93.2%; in experiment [4], 107%.

Regarding `FC(F)(F)c1ccc(/C=C/c2nc(COc3ccc(CCCCn4ccnn4)cc3)co2)cc1`, the residual activity in experiment [1] stood at 98%; in experiment [2], 100%; in experiment [3], 89.5%; in experiment [4], 99.9%.

Turning to `c1ccc(-c2cnc(Nc3ccc(OCCN4CCCC4)cc3)s2)cc1`, the residual activity in experiment [1] was 64.4%; in experiment [2], 93.6%; in experiment [3], 64.7%; in experiment [4], 91.2%.

For the compound `Cc1ccc(S(=O)(=O)/C=C/C#N)cc1`, the residual activity worked out at 96.5% in experiment [1], 98.4% in experiment [2], 99.4% in experiment [3] and 100% in experiment [4].

Consider `CSc1nc(-c2ccc(F)cc2)c(-c2ccnc(NC(C)c3ccccc3)c2)[nH]1` (configuration not stated), for which the residual activity in experiment [1] was 91.3%; in experiment [2] it was 80.5%; in experiment [3], 97.1%; in experiment [4] it was 111%.

`COc1ccc(CNC(=O)Nc2ncc([N+](=O)[O-])s2)cc1`: the residual activity in experiment [1] turned out to be 91.2%; in experiment [2], 85.9%; in experiment [3] it was 98.4%; in experiment [4] it was 96.9%.

In the case of `COc1cc2c(cc1OC)-c1[nH]nc(Nc3cccc(F)c3)c1C2`, the residual activity in experiment [1] stood at 82.6%; in experiment [2], 87%; in experiment [3], 89.8%; in experiment [4] it was 108%.

On to `CCCNC(=O)Nc1ccc(Oc2ncnc3cc(OC)c(OC)cc23)cc1Cl`, for which the residual activity in experiment [1] came out at 38.5%; in experiment [2], 106%; in experiment [3], 95.2%; in experiment [4] it was 102%.

With `O=C1Nc2ccccc2/C1=C1\Nc2ccccc2\C1=N/O`, the residual activity amounted to 53% in experiment [1], 83.5% in experiment [2], 99.6% in experiment [3] and 99.1% in experiment [4].

Consider `Oc1ccc(-c2nc(-c3ccc(F)cc3)c(-c3ccncc3)[nH]2)cc1`, for which the residual activity turned out to be 101% in experiment [1], 109% in experiment [2], 102% in experiment [3] and 115% in experiment [4].

As to `COc1cc2ncnc(Nc3ccc(F)c(Cl)c3)c2cc1OCCCN1CCOCC1`, the residual activity in experiment [1] was found to be 92.2%; in experiment [2], 90.1%; in experiment [3], 41.9%; in experiment [4], 85.9%.

As to `Cn1cnc2cc3c(Nc4cccc(Br)c4)ncnc3cc21`, the residual activity in experiment [1] is 89.7%; in experiment [2] it was 104%; in experiment [3], 39.9%; in experiment [4], 96.9%.

As to `Cc1ccc(Nc2nccc(N(C)c3ccc4c(C)n(C)nc4c3)n2)cc1S(N)(=O)=O`, the values for the residual activity in experiment [2], in experiment [3] and in experiment [4] were 98.3%, 102% and 93.1%, respectively.

Regarding `CCc1nc(-c2ccc(OC)cc2)[nH]c1-c1ccncc1`, the residual activity in experiment [1] stood at 123%; in experiment [2], 110%; in experiment [3], 115%; in experiment [4] it was 121%.

For the compound `Cc1ccc(NC(=O)c2ccc(CN3CCN(C)CC3)cc2)cc1Nc1nc(-c2cccnc2)cs1`, the residual activity in experiment [1] stood at 100%; in experiment [2], 96.5%; in experiment [3] it was 90%; in experiment [4] it was 103%.

For `N#C/C(=C(/N)Sc1ccc(N)cc1)c1ccccc1C(F)(F)F`, the residual activity was determined as 99.8% in experiment [1], 97.5% in experiment [2], 103% in experiment [3] and 104% in experiment [4].

Turning to `O=S(=O)(NCCNC/C=C/c1ccc(Br)cc1)c1cccc2cnccc12`, the residual activity in experiment [1] was 108%; in experiment [2], 81.3%; in experiment [3] it was 93.4%; in experiment [4] it was 104%.

On to `O=c1c(-c2ccc(F)cc2)c(-c2ccncc2)[nH]n1-c1ccc(Cl)cc1`, for which the residual activity stood at 91.5% in experiment [1], 79.4% in experiment [2], 93.9% in experiment [3] and 119% in experiment [4].

As for `O=C1NC(=O)C(c2cn(CCCO)c3ncccc23)=C1c1cnccn1`, the residual activity in experiment [1] stood at 92.3%; in experiment [2], 91.1%; in experiment [3], 100%; in experiment [4] it was 81.7%.

`O=C(Nc1ccc(Cl)cc1)c1ccccc1NCc1ccncc1`: the residual activity was determined as 44.8% in experiment [1], 117% in experiment [2], 118% in experiment [3] and 110% in experiment [4].

With `O=S(=O)(c1cccc2cnccc12)N1CCCNCC1`, the results for the residual activity in experiment [2], in experiment [3] and in experiment [4] were 95.6%, 91.8% and 89.9%, respectively.

On to `N#Cc1c(NC(=O)c2cccc3ccccc23)sc2c1CCCC2`, for which the residual activity stood at 89.8% in experiment [1], 98.1% in experiment [2] and 106% in experiment [3].

For the compound `CCN(CC)CCNC(=O)c1c(C)[nH]c(/C=C2\C(=O)Nc3ccc(F)cc32)c1C`, the residual activity was 75.9% in experiment [2], 99.3% in experiment [3] and 63.5% in experiment [4].

With `C#Cc1cccc(Nc2ncnc3cc(OCCOC)c(OCCOC)cc23)c1`, the residual activity amounted to 94.2% in experiment [2] and 77.2% in experiment [4].

(Values after the kinase profiling compilation of Christmann-Franck et al. (2016).)
